# Measured values taken from PMC5222590 (Structure(London, England:1993), 2017).
# Target: T1, FusA (Streptococcus pneumoniae, UniProt A0A0H2URD6)
# T1 sequence (A0A0H2URD6 47-538): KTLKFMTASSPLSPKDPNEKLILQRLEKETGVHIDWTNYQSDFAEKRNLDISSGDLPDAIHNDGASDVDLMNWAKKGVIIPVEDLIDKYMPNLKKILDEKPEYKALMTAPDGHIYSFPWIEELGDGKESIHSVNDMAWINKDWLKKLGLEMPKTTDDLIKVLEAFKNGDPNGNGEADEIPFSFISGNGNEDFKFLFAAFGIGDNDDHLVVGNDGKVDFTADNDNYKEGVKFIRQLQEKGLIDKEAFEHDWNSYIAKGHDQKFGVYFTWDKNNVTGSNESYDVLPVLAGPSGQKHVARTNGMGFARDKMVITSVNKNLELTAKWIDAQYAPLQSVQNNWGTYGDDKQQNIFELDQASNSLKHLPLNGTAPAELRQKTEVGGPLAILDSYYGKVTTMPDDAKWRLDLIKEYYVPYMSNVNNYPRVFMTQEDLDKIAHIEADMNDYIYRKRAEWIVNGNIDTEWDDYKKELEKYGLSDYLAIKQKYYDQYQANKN
# Test: ITC
# Assay type: binding
# Details: pH 7.4, 0.15 M NaCl, 25 °C; 1:1
structure (smiles),measurement,value
"OC[C@H]1O[C@@](CO)(OC[C@@]2(OC[C@@]3(O[C@H]4O[C@H](CO)[C@@H](O)[C@H](O)[C@H]4O)O[C@H](CO)[C@@H](O)[C@@H]3O)O[C@H](CO)[C@@H](O)[C@@H]2O)[C@@H](O)[C@@H]1O [GF3, nystose]",KD,FusA had submicromolar affinity for fructofuranosyl-nystose and nystose
